# Literature values in article PMC11359702, “Synthesis and Biochemical Evaluation of Ethanoanthracenes and Related Compounds: Antiproliferative and Pro-Apoptotic Effects in Chronic Lymphocytic Leukemia (CLL)” (Pharmaceuticals, 2024).
# Test system: cancer cells isolated from CLL patients
# Settings: cancer cells isolated from CLL patients ref 39; cited from earlier work
smiles,measurement,value
Nc1nc(F)nc2c1ncn2[C@@H]1O[C@H](COP(=O)(O)O)[C@@H](O)[C@@H]1O [fludarabine phosphate],increase in apoptosis,24.6%
